Experimental data published in patent US20240150711A1, “PERSONALIZED REDIRECTION AND REPROGRAMMING OF T CELLS FOR PRECISE TARGETING OF TUMORS” (Dana-Farber Cancer Institute, Inc., priority 2021, published 2024).

Tested on: Tcf7
Assay: Tcf7 protein levels by intracellular flow cytometry in CD8 T cells cultured with neutralizing antibodies or added cytokines
Assay type: cell-based
Conditions: naïve CD8 T cells from wild-type mice, anti-CD3/anti-CD28 stimulation, cultured 1 week in IL2, IL7, IL15, IL21; versus isotype antibodies
Description: Next, it was sought to determine whether the effects of blocking IFN-γ signaling on the Tcf7+ phenotype could be recapitulated using a method separate from CRISPR-deletion, such as with neutralizing antibodies. As such, antibodies to both the Ifn-gamma and Ifn-gamma receptor genes were used. Naïve CD8 T cells were isolated from wild-type mice and cultured in the presence of either isotype-control or a combination of Ifn-gamma and IfngR neutralizing antibodies at various dosing levels or in the presence of added cytokines (either IFN-gamma, IFN-alpha, or IL12), then stimulated with anti-CD3/anti-CD28 antibodies and cultured for 1 week in IL2, IL7, IL15, and IL21, and Tcf7 protein levels were quantified by intracellular flow cytometry, as shown in FIG. 11.

## interferon-γ: added cytokine
  Tcf7 expression (Tcf7 protein levels): no effect on Tcf7 expression
